In patent US20120196899A1, “METHODS AND PRODUCTS FOR TREATING INFLAMMATION” (Rock Creek Pharmaceuticals, Inc., priority 2010, published 2012):
Where “and” joins values, the source holds several entries; their conditions need not be identical. Equal entries are not always repeated.

How the values were obtained:
7W CHO cells = assay: Toxicity in 7W CHO cells; format: cell-based
[1] = tested on: Experimental Autoimmune Thyroiditis; assay: Experimental Autoimmune Thyroiditis (Example 16A): lymphoid typing by flow cytometry; format: in vivo, mice; details: p=0.0143
Experimental: Thyroiditis was induced by injection of thyroglobulin emulsified in complete Freund's adjuvant (CFA). On days 0 and 7, female mice received subcutaneous injection of 100 μg thyroglobulin (2 injections of 50 μg each). Control mice drank water. […] Mice were sacrificed on day 21.
Lymphoid typing. Cervical lymph nodes were removed for lymphoid typing by flow cytometry. Spleen and peritoneal macrophages were removed for ex vivo stimulation.

[2] = Clinical chemistry, day 15; format: in vivo, Sprague-Dawley rats
Description: On day 15, urine was collected on all surviving animals for urinalysis. The animals were euthanized and bled via cardiac puncture. Blood was collected for hematology, clinical chemistry, and coagulation analysis. Tissues were collected, weighed, and stored in 10% neutral-buffered formalin for possible future analysis.

[3] = anatabine 0.1 mg/kg, female rats, individual animals
[4] = anatabine 0.1 mg/kg, male rats, individual animals
[5] = anatabine 0.75 mg/kg, female rats, individual animals

Question: For `C1=CCC(c2cccnc2)NC1` (racemic) [Anatabine, 1,2,3,6-tetrahydro-[2,3′]bipyridinyl], which toxicity (7W CHO cells) is on record?
Answer: The toxicity was “No toxicity was observed”.

Question: And the “activated T cells” value ([1]; cervical lymph nodes)?
Answer: The value was “fewer activated T cells”.

Question: What about the “regulatory T cells” value ([1]; cervical lymph nodes) of the same molecule?
Answer: Its value is “more regulatory T cells”.

Question: What about the “ability to present antigens” value [1] of the same molecule?
Answer: The value was “a lower ability to present antigens”.

Question: And the CHLORIDE ([2]; Mean, F, 0.1 mg/kg)?
Answer: Its CHLORIDE is 100.20 mEq/L.

Question: What about the CHOLESTEROL ([2]; Mean, F, 0.1 mg/kg) of the same molecule?
Answer: Its CHOLESTEROL is 76.40 mg/dL.

Question: What about the CREATININE ([2]; Mean, F, 0.1 mg/kg) of the same molecule?
Answer: The CREATININE was 0.44 mg/dL.

Question: What about the GLUCOSE ([2]; Mean, F, 0.1 mg/kg) of the same molecule?
Answer: The GLUCOSE was 207.60 mg/dL.

Question: And the PHOSPHORUS ([2]; Mean, F, 0.1 mg/kg)?
Answer: Its PHOSPHORUS is 8.08 mg/dL.

Question: And the POTASSIUM ([2]; Mean, F, 0.1 mg/kg)?
Answer: The POTASSIUM was 5.82 mEq/L.

Question: And the SODIUM ([2]; Mean, F, 0.1 mg/kg)?
Answer: The SODIUM was 146.80 mEq/L.

Question: What about the CHLORIDE ([2]; Mean, F, 0.75 mg/kg) of the same molecule?
Answer: Its CHLORIDE is 98.00 mEq/L.

Question: What about the CHOLESTEROL ([2]; Mean, F, 0.75 mg/kg) of the same molecule?
Answer: The CHOLESTEROL was 69.80 mg/dL.

Question: What about the CREATININE ([2]; Mean, F, 0.75 mg/kg) of the same molecule?
Answer: The CREATININE was 0.44 mg/dL.

Question: What about the GLUCOSE ([2]; Mean, F, 0.75 mg/kg) of the same molecule?
Answer: Its GLUCOSE is 220.80 mg/dL.

Question: What about the PHOSPHORUS ([2]; Mean, F, 0.75 mg/kg) of the same molecule?
Answer: The PHOSPHORUS was 8.64 mg/dL.

Question: And the POTASSIUM ([2]; Mean, F, 0.75 mg/kg)?
Answer: The POTASSIUM was 5.88 mEq/L.

Question: What about the SODIUM ([2]; Mean, F, 0.75 mg/kg) of the same molecule?
Answer: Its SODIUM is 145.00 mEq/L.

Question: And the CHLORIDE ([2]; Mean, M, 0.1 mg/kg)?
Answer: Its CHLORIDE is 98.00 mEq/L.

Question: And the CHOLESTEROL ([2]; Mean, M, 0.1 mg/kg)?
Answer: The CHOLESTEROL was 67.20 mg/dL.

Question: What about the CREATININE ([2]; Mean, M, 0.1 mg/kg) of the same molecule?
Answer: Its CREATININE is 0.36 mg/dL.

Question: What about the PHOSPHORUS ([2]; Mean, M, 0.1 mg/kg) of the same molecule?
Answer: Its PHOSPHORUS is 10.82 mg/dL.

Question: And the POTASSIUM ([2]; Mean, M, 0.1 mg/kg)?
Answer: The POTASSIUM was 6.40 mEq/L.

Question: What about the SODIUM ([2]; Mean, M, 0.1 mg/kg) of the same molecule?
Answer: The SODIUM was 146.20 mEq/L.

Question: What about the CHLORIDE ([2]; Mean, M, 0.75 mg/kg) of the same molecule?
Answer: Its CHLORIDE is 98.60 mEq/L.

Question: And the CHOLESTEROL ([2]; Mean, M, 0.75 mg/kg)?
Answer: Its CHOLESTEROL is 62.80 mg/dL.

Question: What about the CREATININE ([2]; Mean, M, 0.75 mg/kg) of the same molecule?
Answer: The CREATININE was 0.36 mg/dL.

Question: What about the GLUCOSE ([2]; Mean, M, 0.75 mg/kg) of the same molecule?
Answer: Its GLUCOSE is 202.00 mg/dL.

Question: And the PHOSPHORUS ([2]; Mean, M, 0.75 mg/kg)?
Answer: Its PHOSPHORUS is 10.92 mg/dL.

Question: And the POTASSIUM ([2]; Mean, M, 0.75 mg/kg)?
Answer: The POTASSIUM was 6.12 mEq/L.

Question: What about the SODIUM ([2]; Mean, M, 0.75 mg/kg) of the same molecule?
Answer: The SODIUM was 147.80 mEq/L.

Question: And the ALBUMIN [2, 3]?
Answer: Its ALBUMIN is 3.6 g/dL (3×) and 3.5 g/dL and 3.8 g/dL.

Question: What about the “ALK PHOSPHATASE” value [2, 3] of the same molecule?
Answer: The value was 261 IU/L and 140 IU/L and 209 IU/L and 412 IU/L and 220 IU/L.

Question: And the ALT [2, 3]?
Answer: Its ALT is 57 IU/L and 43 IU/L and 47 IU/L and 62 IU/L and 39 IU/L.

Question: What about the AST [2, 3] of the same molecule?
Answer: The AST was 78 IU/L and 69 IU/L and 70 IU/L and 86 IU/L and 82 IU/L.

Question: What about the BUN [2, 3] of the same molecule?
Answer: The BUN was 21 mg/dL (2×) and 19 mg/dL (3×).

Question: What about the CHLORIDE [2, 3] of the same molecule?
Answer: The CHLORIDE was 99 mEq/L and 102 mEq/L (2×) and 97 mEq/L and 101 mEq/L.

Question: What about the CHOLESTEROL [2, 3] of the same molecule?
Answer: The CHOLESTEROL was 90 mg/dL and 74 mg/dL and 65 mg/dL and 66 mg/dL and 87 mg/dL.

Question: And the CREATININE [2, 3]?
Answer: The CREATININE was 0.4 mg/dL (3×) and 0.5 mg/dL (2×).

Question: What about the “DIR BILIRUBIN” value [2, 3] of the same molecule?
Answer: Its value is 0 mg/dL.

Question: And the GLOBULIN [2, 3]?
Answer: The GLOBULIN was 3.1 g/dL (3×) and 3 g/dL.

Question: What about the GLUCOSE [2, 3] of the same molecule?
Answer: The GLUCOSE was 224 mg/dL and 170 mg/dL and 227 mg/dL and 220 mg/dL and 197 mg/dL.

Question: And the PHOSPHORUS [2, 3]?
Answer: Its PHOSPHORUS is 8.5 mg/dL (2×) and 8.2 mg/dL and 7.4 mg/dL and 7.8 mg/dL.

Question: What about the POTASSIUM [2, 3] of the same molecule?
Answer: The POTASSIUM was 5.4 mEq/L and 6.3 mEq/L and 5.2 mEq/L and 5.5 mEq/L and 6.7 mEq/L.

Question: What about the SODIUM [2, 3] of the same molecule?
Answer: Its SODIUM is 147 mEq/L and 145 mEq/L.

Question: And the “TOT BILIRUBIN” value [2, 3]?
Answer: Its value is 0 mg/dL.

Question: What about the “TOT PROTEIN” value [2, 3] of the same molecule?
Answer: The value was 6.7 g/dL (2×) and 6.3 g/dL and 6.9 g/dL and 6.6 g/dL.

Question: And the ALBUMIN [2, 4]?
Answer: The ALBUMIN was 3.4 g/dL (2×) and 3.2 g/dL and 3.1 g/dL (2×).

Question: And the “ALK PHOSPHATASE” value [2, 4]?
Answer: Its value is 470 IU/L and 227 IU/L and 364 IU/L and 358 IU/L and 618 IU/L.

Question: And the ALT [2, 4]?
Answer: The ALT was 92 IU/L and 65 IU/L and 74 IU/L and 44 IU/L and 78 IU/L.

Question: And the AST [2, 4]?
Answer: The AST was 97 IU/L and 99 IU/L and 93 IU/L and 85 IU/L and 106 IU/L.

Question: What about the BUN [2, 4] of the same molecule?
Answer: Its BUN is 18 mg/dL (2×) and 21 mg/dL and 14 mg/dL and 19 mg/dL.

Question: And the CHLORIDE [2, 4]?
Answer: Its CHLORIDE is 98 mEq/L and 97 mEq/L (2×) and 99 mEq/L (2×).

Question: And the CHOLESTEROL [2, 4]?
Answer: Its CHOLESTEROL is 65 mg/dL and 64 mg/dL and 75 mg/dL and 56 mg/dL and 76 mg/dL.

Question: And the CREATININE [2, 4]?
Answer: The CREATININE was 0.4 mg/dL (3×) and 0.3 mg/dL (2×).

Question: And the “DIR BILIRUBIN” value [2, 4]?
Answer: The value was 0 mg/dL.

Question: And the GLOBULIN [2, 4]?
Answer: Its GLOBULIN is 2.9 g/dL (2×) and 2.6 g/dL and 3.1 g/dL.

Question: What about the GLUCOSE [2, 4] of the same molecule?
Answer: The GLUCOSE was 258 mg/dL and 214 mg/dL and 194 mg/dL and 210 mg/dL.

Question: What about the PHOSPHORUS [2, 4] of the same molecule?
Answer: Its PHOSPHORUS is 10.3 mg/dL (2×) and 10.8 mg/dL.

Question: What about the POTASSIUM [2, 4] of the same molecule?
Answer: The POTASSIUM was 5.9 mEq/L and 6.5 mEq/L and 6.6 mEq/L and 6.9 mEq/L and 6.1 mEq/L.

Question: And the SODIUM [2, 4]?
Answer: The SODIUM was 144 mEq/L and 147 mEq/L.

Question: What about the “TOT BILIRUBIN” value [2, 4] of the same molecule?
Answer: The value was 0 mg/dL.

Question: What about the “TOT PROTEIN” value [2, 4] of the same molecule?
Answer: The value was 6.3 g/dL (2×) and 5.8 g/dL and 5.9 g/dL and 6.2 g/dL.

Question: What about the ALBUMIN [2, 5] of the same molecule?
Answer: Its ALBUMIN is 3.5 g/dL (2×) and 3.6 g/dL (2×) and 3.4 g/dL.

Question: And the “ALK PHOSPHATASE” value [2, 5]?
Answer: The value was 123 IU/L and 142 IU/L and 235 IU/L and 130 IU/L and 160 IU/L.
